# Reference: patent US20230000773A1, “NOVEL HEADGROUP LIPID COMPOUNDS AND COMPOSITIONS FOR INTRACELLULAR DELIVERY OF THERAPEUTIC AGENTS” (ModernaTX, Inc., priority 2019, published 2023)
# Legend:
# [1] = Size and polydispersity index of nanoparticles comprising compounds of the disclosure; assay type: physicochemical; conditions: compound:DSPC:cholesterol:PEG 2 50:10:38:2 mol %
# Excerpt: Lipid nanoparticles (e.g., empty LNPs or loaded LNPs) may be characterized by a variety of methods. For example, microscopy (e.g., transmission electron microscopy or scanning electron microscopy) may be used to examine the morphology and size distribution of a nanoparticle composition. Dynamic light scattering or potentiometry (e.g., potentiometric titrations) may be used to measure zeta potentials. Dynamic light scattering may also be utilized to determine particle sizes. Instruments such as the Zetasizer Nano ZS (Malvern Instruments Ltd, Malvern, Worcestershire, UK) may also be used to measure multiple characteristics of a nanoparticle composition, such as particle size, polydispersity index, and zeta potential.
# (§1) Nanoparticle compositions including a therapeutic and/or prophylactic can be optimized according to the selection of a compound according to Formula (I), (I-1), (A), (A-1), (A-1a), or (A-1b), the selection of additional lipids, the amount of each lipid in the lipid component, and the wt:wt ratio of the lipid component to the therapeutic and/or prophylactic. Nanoparticle compositions including DSPC as a phospholipid, cholesterol as a structural lipid, PEG 2 as a PEG lipid, and a compound according to Formula (I), (I-1), (A), (A-1), (A-1a), or (A-1b) were prepared. The ratios of the lipids were 50:10:38:2 mol % for the lipid according to Formula (I), (I-1), (A), (A-1), (A-1a), or (A-1b):DSPC:cholesterol:PEG 2. […]
# [2] = Apparent LNP pKa by 2-(p-toluidino)-6-napthalene sulfonic acid (TNS) assay; assay type: physicochemical; conditions: pH at half of maximum fluorescence
# [3] = Heparin-sepharose binding of nanoparticles
# [4] = Encapsulation efficiency (% EE), ribogreen; assay type: physicochemical; conditions: nanoparticles, compound:DSPC:cholesterol:PEG 2 50:10:38:2 mol %
# Excerpt: The efficiency of encapsulation of a therapeutic and/or prophylactic describes the amount of therapeutic and/or prophylactic that is encapsulated or otherwise associated with a lipid nanoparticle (e.g., an empty LNP or a loaded LNP) after preparation, relative to the initial amount provided. The encapsulation efficiency is desirably high (e.g., close to 100%). The encapsulation efficiency may be measured, for example, by comparing the amount of therapeutic and/or prophylactic in a solution containing the lipid nanoparticle (e.g., an empty LNP or a loaded LNP) before and after breaking up the lipid nanoparticle (e.g., an empty LNP or a loaded LNP) with one or more organic solvents or detergents. Fluorescence may be used to measure the amount of free therapeutic and/or prophylactic (e.g., RNA) in a solution.
# as §1
# hEPO mRNA = test: hEPO expression in CD1-mice after intravenous administration of nanoparticles; assay type: in vivo; conditions: 6 h after intravenous administration, mRNA dose 0.5 mg/kg, N:P 3.4, compound:DSPC:cholesterol:PEG 2 50:10:38:2
# Procedure: The expression of hEPO mRNA in CD1-mice was measured 6 h after intravenous administration of nanoparticles comprising a compound of the disclosure, DSPC, cholesterol, and PEG 2 in a ratio of 50:10:38:2. […] Each composition was dosed to 8 animals at an mRNA dose of 0.5 mg/kg.
# [5] = Surface hydrophobicity by Generalized Polarization by Laurdan (GPL); assay type: physicochemical; conditions: normalized Generalized Polarization by Laurdan; higher N-GP = less polar surface
# Excerpt: Nanoparticle compositions including a therapeutic and/or prophylactic can be optimized according to the selection of a compound according to Formula (I), (I-1), (A), (A-1), (A-1a), or (A-1b), the selection of additional lipids, the amount of each lipid in the lipid component, and the wt:wt ratio of the lipid component to the therapeutic and/or prophylactic. Nanoparticle compositions including DSPC as a phospholipid, cholesterol as a structural lipid, PEG 2 as a PEG lipid, and a compound according to Formula (I), (I-1), (A), (A-1), (A-1a), or (A-1b) were prepared. The ratios of the lipids were 50:10:38:2 mol % for the lipid according to Formula (I), (I-1), (A), (A-1), (A-1a), or (A-1b):DSPC:cholesterol:PEG 2.
# Laurdan, a fluorescent aminonaphthalene ketone lipid, was post-inserted into the nanoparticle surface and the fluorescence spectrum of Laurdan was collected to determine the normalized Generalized Polarization (N-GP). Higher N-GP indicates a less polar surface.
Structure (SMILES),PDI [1],Size (nm) [1],LogIC50 (pKa) [2],Relative % Area Bound by LNP [3],% EE (ribogreen) [4],Avg. [hEPO] mIU/mL (hEPO mRNA),Average N-GP [5]
"CCCCCCCCC(CC)OC(=O)CCCCCCCN(CCCCCCCC(=O)OC(CCCCCCCC)CCCCCCCC)CCCNC1=NS(=O)(=O)N=C1NC (stereo not shown) [Compound 2, Heptadecan-9-yl 8-((3-((4-(methylamino)-1,1-dioxido-1,2,5-thiadiazol-3-yl)amino)propyl)(8-oxo-8-(undecan-3-yloxy)octyl)amino)octanoate]",0.104,60.8 nm,7.65,21.86%,95.1%,6.57E+04 mIU/mL,
"CCCCCCCCC(CC)OC(=O)CCCCCCCN(CCCCCCCC(=O)OC(CCCCCCCC)CCCCCCCC)CCCNc1c(Cl)c(=O)n(C)n(C)c1=O (stereo not shown) [Compound 6, Heptadecan-9-yl 8-((3-((5-chloro-1,2-dimethyl-3,6-dioxo-1,2,3,6-tetrahydropyridazin-4-yl)amino)propyl)(8-oxo-8-(undecan-3-yloxy)octyl)amino)octanoate]",0.088,68.4 nm,6.00,0%,97.9%,8.12E+04 mIU/mL,
"CCCCCCCCC(CC)OC(=O)CCCCCCCN(CCCCCCCC(=O)OC(CCCCCCCC)CCCCCCCC)CCCNC(=O)C(=O)NC (stereo not shown) [Compound 12, Heptadecan-9-yl 8-((3-(2-(methylamino)-2-oxoacetamido)propyl)(8-oxo-8-(undecan-3-yloxy)octyl)amino)octanoate]",0.139,78.9 nm,6.13,1.43%,85.0%,2.29E+05 mIU/mL,
"CCCCCCCCC(CC)OC(=O)CCCCCCCN(CCCCCCCC(=O)OC(CCCCCCCC)CCCCCCCC)CCCNC(C(N)=O)C(N)=O (stereo not shown) [Compound 14, Heptadecan-9-yl 8-((3-((1,3-diamino-1,3-dioxopropan-2-yl)amino)propyl)(8-oxo-8-(undecan-3-yloxy)octyl)amino)octanoate]",0.167,91.2 nm,7.20,69.04%,98.9%,6.20E+04 mIU/mL,
"CCCCCCCCC(CC)OC(=O)CCCCCCCN(CCCCCCCC(=O)OC(CCCCCCCC)CCCCCCCC)CCCNC(=O)CC(=O)NC (stereo not shown) [Compound 17, Heptadecan-9-yl 8-({3-[2-(methylcarbamoyl)acetamido]propyl}[8-oxo-8-(undecan-3-yloxy)octyl]amino)octanoate]",0.178,80.8 nm,7.23,37.96%,98.4%,7.95E+04 mIU/mL,
"CCCCCCCCC(CC)OC(=O)CCCCCCCN(CCCCCCCC(=O)OC(CCCCCCCC)CCCCCCCC)CCCNc1cc[nH]c(=O)n1 (stereo not shown) [Compound 21, Heptadecan-9-yl 8-((3-((2-oxo-1,2-dihydropyrimidin-4-yl)amino)propyl)(8-oxo-8-(undecan-3-yloxy)octyl)amino)octanoate]",0.141,62.5 nm,7.59,50.19%,99.4%,7.04E+04 mIU/mL,
"CCCCCCCCC(CC)OC(=O)CCCCCCCN(CCCCCCCC(=O)OC(CCCCCCCC)CCCCCCCC)CCCNc1cc(=O)[nH]c(=O)[nH]1 (stereo not shown) [Compound 24, Heptadecan-9-yl 8-((3-((2,6-dioxo-1,2,3,6-tetrahydropyrimidin-4-yl)amino)propyl)(8-oxo-8-(undecan-3-yloxy)octyl)amino)octanoate]",0.114,60.8 nm,6.56,0%,98.8%,2.05E+05 mIU/mL,
"CCCCCCCCC(CC)OC(=O)CCCCCCCN(CCCCCCCC(=O)OC(CCCCCCCC)CCCCCCCC)CCCNc1nc2[nH]cnc2c(=O)[nH]1 (stereo not shown) [Compound 29, Heptadecan-9-yl 8-((3-((6-oxo-6,9-dihydro-1H-purin-2-yl)amino)propyl)(8-oxo-8-(undecan-3-yloxy)octyl)amino)octanoate]",0.199,63.5 nm,6.68,6.45%,98.9%,8.93E+04 mIU/mL,
"CCCCCCCCC(CC)OC(=O)CCCCCCCN(CCCCCCCC(=O)OC(CCCCCCCC)CCCCCCCC)CCCNc1ncncc1NC (stereo not shown) [Compound 35, Heptadecan-9-yl 8-((3-((5-(methylamino)pyrimidin-4-yl)amino)propyl)(8-oxo-8-(undecan-3-yloxy)octyl)amino)octanoate]",0.176,91.2 nm,7.27,2.90%,96%,3.71E+05 mIU/mL,0.888
"CCCCCCCCC(CC)OC(=O)CCCCCCCN(CCCCCCCC(=O)OC(CCCCCCCC)CCCCCCCC)CCCn1ccc2cc([N+](=O)[O-])ccc21 (stereo not shown) [Compound 48, Heptadecan-9-yl 8-((3-(5-nitro-1H-indol-1-yl)propyl)(8-oxo-8-(undecan-3-yloxy)octyl)amino)octanoate]",0.196,54.3 nm,6.41,0%,−11.2%,0 mIU/mL,
"CCCCCCCCC(CC)OC(=O)CCCCCCCN(CCCCCCCC(=O)OC(CCCCCCCC)CCCCCCCC)CCCNc1noc(N)n1 (stereo not shown) [Compound 50, Heptadecan-9-yl 8-((3-((5-amino-1,2,4-oxadiazol-3-yl)amino)propyl)(8-oxo-8-(undecan-3-yloxy)octyl)amino)octanoate]",0.18,69.8 nm,6.09,0%,98.1%,1.91E+05 mIU/mL,
CCCCCCCCC(CC)OC(=O)CCCCCCCN(CCCCCCCC(=O)OC(CCCCCCCC)CCCCCCCC)CCCN/C=C1/NC(=O)NC1=O (stereo not shown) [Compound 52],0.22,53.7 nm,,,98.2%,,
